Reference: patent publication US20070270455A1, “INHIBITION OF NF-kB” (priority 2005, published 2007)

How the values were obtained:
HT1080ConALuc cells = test: p53-responsive luciferase reporter assay in HT1080 cells; assay type: cell-based, human
Text: (§1) Bars represent folds of p53 responsive reporter induction over untreated controls. Box represents western blot analysis of p53 expression in total protein lysates of both cells variants in basal and doxorubicin treated conditions (to evaluate basal and DNA-damage induced level of p53). […] Fold induction presented as fold of reporter activation over untreated control. […] Fold induction presented as fold of reporter activation over untreated control.
(§2) For cotransfection set-up, 2×10^5 cells were plated into 6 well plates and, after overnight incubation, transfected with Lipofectamin Plus reagent (Gibco BRL) with 0.5 μg of reporter plasmids (p21-ConALuc or pNF-κBLuc) in combination with different concentrations of p53, Arf, Ss-IκB, or siHDM2 expressing plasmids. Corresponding empty vectors were added into all transfections up to 2 μg of total DNA amount. Normalization of transfection efficiency was done by adding 0.2 μg of pCMV-LacZ plasmid. Luciferase activity and β-galactosidase activity was measured in lysates prepared 48 hours after transfection with Cell Lysis Buffer (Promega) by luciferase assay system (Promega) or β-galactosidase enzyme system (Promega). Luminometric and colorimetric reactions were read on the Wallack 1420 plate reader (Perkin Elmer). Integrated reporter set-up. 2×10^4 of cells with integrated reporter were plated in 96 well plates. After overnights incubation chemical compounds or media from lentivirus producing cells were added. At different time points cell lysates were prepared using Reporter Lysis Buffer (Promega). Luciferase or β-galactosidase activity and protein concentration were measured in aliquots of cell lysates using standard kits (Promega, Luciferase and β-galactosidase assay systems, Biorad Protein Assay Kit).

p53 null H1299 cells = test: p53-responsive reporter assay in p53 null cells; assay type: cell-based
Text: as §1
as §2, with “Normalization of transfection efficiency was done by adding 0.2 μg of pCMV-LacZ plasmid.” left out, “Integrated reporter set-up. 2×10^4 of cells with integrated reporter were plated in 96 well plates. After overnights incubation chemical compounds or media from lentivirus producing cells were added. At different time points cell lysates were prepared using Reporter Lysis Buffer (Promega).” left out

[1] = test system: HT1080 sip53 or HT1080 siGFP cells; test: Cell cycle analysis; assay type: cell-based, human
[2] = test system: HT1080-sip53 and HT1080-siGFP cells; test: Cell survival assay in isogenic cell pairs with anti-p53 or control siRNA; assay type: cell-based, human; settings: anti-p53 vs control siRNA; maximum difference in HT1080 cells
H1299-NF-kBLuc cells = test: NF-κB-responsive luciferase reporter assay; assay type: cell-based
IκB = test: Western blot of IκB level and phosphorylation; assay type: cell-based; settings: PC-3 cells, 10 μM; MCF7 cells
Method: (§3) Western blot analysis of total protein lysates was performed using antibodies against p53 (DO1) and against specific sites of phosphorylation in p53. […] HCT116 cells were treated for 30 minutes with 1 μM PS-341. PS-341 was washed off after 30 minutes and cells were re-incubated in drug free medium prior to analysis at 3 hours or 16 hours post-treatment. […] Proteasome activity was determined by measuring the absorbance of free AMC generated by cleavage of an AMC-fluorogenic peptide. The proteasome activity of untreated cells was set at 100%. […] Cell lysates were isolated at the indicated hours after treatment and used for western blotting. […]
(§4) Cells were lysed in RIPA buffer (25 mM Tris HCl, pH7.2, 125 mM NaCl, 1% NP40, 1% sodium deoxycholate, 1 mM EDTA) containing 1 mM PMSF (Sigma), 10 μg/ml of aprotinin (Sigma) and 10 μg/ml of leupeptin (Sigma). Protein concentrations were determined with BioRad Dc protein assay kit. […] The following antibodies were used: anti-p53—monoclonal mouse DO1 (Santa-Cruz), anti-p21—monoclonal mouse F-5 (Santa-Cruz), anti-mdm2—monoclonal mouse SMP14 (Santa-Cruz). p53 phosphorylation status was analyzed using phospho-p53 sampler kit from Cell signaling according to manufacturer's recommendations, anti-p65—(C20, Santa Cruz), anti-phospho-p65—(ser536, Cell Signaling), anti-IκBa—(C21, Santa Cruz), anti-p50—(NLS, Santa Cruz). […]

RCC cell lines = test: Restoration of p53-mediated transactivation in RCC cell lines; assay type: cell-based; settings: data not shown
p53 = test: Western blot of p53 phosphorylation status in RCC45 cells; assay type: cell-based; settings: 9AA 5 μM or dox 1 μM, 16 hours
Method: as §3, §4

topoisomerase II = test: DNA—Topoisomerase II activity assay; assay type: cell-based; settings: in vitro; HT1080 cells, 1 h
Method: Western blot analysis of total protein lysates was performed using antibodies against p53 (DO1) and against specific sites of phosphorylation in p53. […] HCT116 cells were treated for 30 minutes with 1 μM PS-341. PS-341 was washed off after 30 minutes and cells were re-incubated in drug free medium prior to analysis at 3 hours or 16 hours post-treatment. […] Proteasome activity was determined by measuring the absorbance of free AMC generated by cleavage of an AMC-fluorogenic peptide. The proteasome activity of untreated cells was set at 100%. […] Cell lysates were isolated at the indicated hours after treatment and used for western blotting. Blots were probed with antibodies specific for both phosphorylated and unphosphorylated forms of IκB-α. β-actin specific antibodies were used as a loading control.
HT1080 cells were labeled for 24 hours with 0.02 to 0.04 mCi/mL of [^14C] thymidine, specific activity 53 mCi/mmol (Amersham). […] The induction of topo II-mediated DNA scission was determined by measuring precipitation of the protein DNA complex using a modification of the SDS-KCl technique.

RCC54 = test: Global gene expression profile by microarray hybridization, RCC54; assay type: cell-based; settings: 36847 genes; at least in one dose (2 μM, 10 μM) in both cell lines RCC45 and RCC54; 16 hours
Method: RNA was isolated after 16 hours of treatment that was enough to induce p53 but before appearance of signs of cell death. Among the 36847 genes represented on the array, only 0.6% changed their mRNA abundance by at least a factor of 2 at least in one dose in both cell lines.

MCF7ConALacZ cells = test: p53-responsive reporter assay in MCF7 cells; assay type: cell-based; settings: compared with doxorubicin
Text: as §1
as §2, with “Normalization of transfection efficiency was done by adding 0.2 μg of pCMV-LacZ plasmid.” left out, “Integrated reporter set-up. 2×10^4 of cells with integrated reporter were plated in 96 well plates. After overnights incubation chemical compounds or media from lentivirus producing cells were added. At different time points cell lysates were prepared using Reporter Lysis Buffer (Promega).” left out

[3] = test system: normal kidney epithelial cells and human diploid fibroblasts WI38; test: Cell survival assay in normal cells; assay type: cell-based
Method: The same experiment as described in FIG. 4A was performed with NKE, RCC45, RCC54 and ACHN cells.
5×10^3 of cells were plated in 6 well plates and treated with different concentrations of drugs for 24 hours. Then fresh drug-free medium was added. Number of colonies was estimated after 5-6 days of incubation. Cell survival was estimated as a percentage of intensity of methylene blue staining of treated cells, comparing with untreated control (methylene blue from stained colonies was extracted by 0.1% of SDS and quantitated spectrophotometrically).

[4] = after treatment with the drug, FIG. 3f

Nc1c2ccccc2nc2ccccc12 [9AA, 9-aminoacridine]
concentration at which p53 was activated (HT1080ConALuc cells; HT1080ConALuc cells, 24 hours): ≥ 1 µM
time at which p53-dependent transactivation becomes detectable (HT1080ConALuc cells; [4]): 12 h
time at which p53-dependent transactivation reaches maximum (HT1080ConALuc cells; [4]): around 36 hours
stimulation of p53 reporter activity (p53 null H1299 cells): no stimulation of reporter activity
effect on cell cycle ([1]; 3 μM): p53-dependent growth arrest
effect on cell cycle ([1]; 20 μM): apoptosis
toxicity in cells differing in p53 status [2]: less toxic to the cells with reduced p53 expression
TSA-stimulated NF-κB-dependent transcription (H1299-NF-kBLuc cells; 100 nM TSA): could not be blocked
NF-κB-responsive reporter activity (H1299-NF-kBLuc cells; basal and TNF-induced (10 ng/ml)): inhibited basal and TNF-induced activity of the reporter
level of IκB (IκB): gradual decrease followed by complete disappearance of IκB
RCC cell lines with restored p53-mediated transactivation (RCC cell lines): 9 out of 10
p53 phosphorylation status (p53): did not affect
effect on topoisomerase II activity (topoisomerase II): no effect
genes that changed mRNA abundance by at least a factor of 2 (RCC54): 0.6%
induction of p53 reporter and p53-responsive genes (in words) (MCF7ConALacZ cells): weaker than that of doxorubicin
sensitivity of normal cells compared with RCC and other tumor cells [3]: more resistant to 9AA
